Source: patent publication EP0079489A1, “Methotrexate-labeled iodothyronine conjugates and method, reagent means and test device for the determination of iodothyronine in or iodothyronine uptake of a liquid sample” (MILES LABORATORIES, INC., priority 1981, dated 1983)

Legend:
[1] = target: T1, bovine liver dihydrofolate reductase (Bos taurus, UniProt P00376); assay: Inhibition of dihydrofolate reductase by the labeled conjugate (Example 1C); format: biochemical; details: for ΔA340/20 Min: 37°C, without conjugate 0.645
T1 construct: bovine liver dihydrofolate reductase (Sigma Chemical Co., St. Louis, MO); purchased Sigma Chemical Co., St. Louis, MO; host or cells: bovine liver
T1 sequence (P00376 1-187): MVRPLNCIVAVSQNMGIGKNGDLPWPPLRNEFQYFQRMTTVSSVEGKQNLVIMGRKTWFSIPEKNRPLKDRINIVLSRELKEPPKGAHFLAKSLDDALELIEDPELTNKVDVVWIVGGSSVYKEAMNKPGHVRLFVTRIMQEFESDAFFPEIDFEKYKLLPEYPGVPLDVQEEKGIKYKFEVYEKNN
Protocol: (§1) The standard assay consisted of 0.10 mM dihydrofolate (DHF), 0.10 mM NADPH, 0.001 unit/bovine liver dihydrofolate reductase (Sigma Chemical Co., St. Louis, MO) and 0.1 M sodium phosphate (pH 6.0) in a final volume of 2.0 ml. The reaction mixture without dihydrofolate was incubated at 37°C for 5 minutes, then the reaction was initiated by adding dihydrofolate, and an initial absorbance at 340 nm was recorded with a Gilford 250 spectrophotometer (Gilford Instrument Laboratories, Oberlin, OH). The reaction was allowed to proceed for 20 minutes at 37°C and then a final reading was recorded. The enzyme activity was expressed as the change in absorbance (AA) at 340 nanometers (nm) that occurred during the 20 minute (min) reaction.
Various concentrations of methotrexate-aminobutylthroxine conjugate were incubated with the standard concentrations of NADPH, dihydrofolate reductase and buffer for 5 minutes at 37°C. The reaction was initiated as discussed above with the addition of dihydrofolate.

Antibody to Thyroxine [2] = assay: Titration of antibody to thyroxine with the labeled conjugate, dihydrofolate reductase activity read-out (Example 1D); format: binding; details: 75 µl of 0.16 µM conjugate (6 nM)
Protocol: as §1
Various concentrations of antibody to thyroxine and the standard concentrations of NADPH, 6 nM methotrexate-aminobutylthyroxine and buffers were incubated for 2 minutes at room temperature. Dihydrofolate reductase was then added, and the incubation was continued for 5 minutes at 37°C. The enzyme catalyzed reaction was initiated by addition of dihydrofolate and monitored as described above.

Antibody to Thyroxine [3] = assay: Competitive binding assay for thyroxine, dihydrofolate reductase activity read-out (Example 1E); details: 100 µl of 0.16 µM conjugate
Protocol: as §1
The standard concentrations of NADPH, buffer, antibody to thyroxine and various concentrations of thyroxine were incubated at room remperature for a minimum of 30 seconds. Then 100 µl of […] methotrexate-aminobutylthyroxine was added and the mixture was incubated at room temperature for 2 minutes. Following the second incubation, dihydrofolate reductase was added and the mixture was incubated an additional 5 minutes at 37°C. The reaction was initiated and monitored in the usual manner.

[4] = system: Rabbit antibody to thyroxine; assay: Titration of antibody to thyroxine with the labeled conjugate, thiazoyl blue colorimetric read-out (Example 2B); format: binding; details: 40 µl Reagent 5 (conjugate), 10 minutes
Protocol: Thyroxine-free serum was prepared by treatment of pooled human serum with charcoal [Larsen et al, J. Clin. Endocrinol. Metab. 37:177(1973)]. All reagents except thyroxine-free serum or as otherwise indicated below were prepared in 0.1 M sodium phosphate buffer, pH 6.5, containing 0.3 M potassium chloride and 0.005% sodium azide. • Reagent 1 - Mixture of 6.5 ml of 10 mM 8-anilinonaphthalene sulfonic acid and 10 ml of thyroxine-free serum. • Reagent 2 - Mixture of 1.0 ml of bovine liver dihydrofolate reductase (0.152 units/ml) and 1.0 ml of 11 mM thiazoyl blue. • Reagent 3 - 0.114 mM dihydrofolate in 0.085 M sodium phosphate buffer, pH 6.2, 0.255 mM potassium chloride, and 0.043% sodium azide. • Reagent 4 - Rabbit antibody to thyroxine diluted 10-fold in buffer. • Reagent 5 - […] methotrexate-thyroxine conjugate (Part A above) in 10 mM sodium carbonate buffer, pH 9.5. • Reagent 6 - 10 mM NADPH in 10 mM sodium carbonate buffer, pH 9.5.
Various amounts of Reagent 4 (indicated in Table 4 below) were mixed with 40 µl of Reagent 5, 90 µl of Reagent 6, and sufficient buffer to make a final volume of 625 pl. Then 175 µl of Reagent 1 was added to each followed by 250 µl of buffer and the incubation was continued. After 10 minutes from the addition of Reagent 3, the absorbance at 560 nm was recorded for each reaction mixture and shown in Table 4.

Row | Compound | ΔA340/20 Min ([1]; 25 μl of 0.16 μM conjugate in 2.0 ml final volume) | ΔA340/20 Min ([1]; 50 μl of 0.16 μM conjugate in 2.0 ml final volume) | ΔA340/20 Min ([1]; 100 μl of 0.16 μM conjugate in 2.0 ml final volume) | ΔA340/20 Min ([1]; 200 μl of 0.16 μM conjugate in 2.0 ml final volume) | inhibition of dihydrofolate reductase (verdict in words) ([1]; various concentrations of conjugate, Table 1) | ΔA340/20 Min (Antibody to Thyroxine [2]; 10 µl antibody to thyroxine 1:9 dilution) | ΔA340/20 Min (Antibody to Thyroxine [2]; 20 µl antibody to thyroxine 1:9 dilution) | ΔA340/20 Min (Antibody to Thyroxine [2]; 40 µl antibody to thyroxine 1:9 dilution) | ΔA340/20 Min (Antibody to Thyroxine [2]; 80 µl antibody to thyroxine 1:9 dilution) | ΔA340/20 Min (Antibody to Thyroxine [2]; 160 µl antibody to thyroxine 1:9 dilution) | ΔA340/20 Min (Antibody to Thyroxine [2]; no antibody, without conjugate and antibody 0.691) | ΔA340/20 Min (Antibody to Thyroxine [3]; 30 µl antibody to thyroxine 1:4 dil, no thyroxine) | ΔA340/20 Min (Antibody to Thyroxine [3]; no antibody, without conjugate 0.620) | Average Absorbance (560 nm) ([4]; 20 µl Reagent 4 (rabbit antibody diluted 10-fold)) | Average Absorbance (560 nm) ([4]; 40 µl Reagent 4 (rabbit antibody diluted 10-fold)) | Average Absorbance (560 nm) ([4]; 80 µl Reagent 4 (rabbit antibody diluted 10-fold)) | Average Absorbance (560 nm) ([4]; 160 µl Reagent 4 (rabbit antibody diluted 10-fold)) | Average Absorbance (560 nm) ([4]; 320 µl Reagent 4 (rabbit antibody diluted 10-fold)) | Average Absorbance (560 nm) ([4]; no antibody solution, thyroxine-free serum present)
1 | CN(Cc1cnc2nc(N)nc(N)c2n1)c1ccc(C(=O)NC(CCC(=O)NCCCCNC(Cc2cc(I)c(Oc3cc(I)c(O)c(I)c3)c(I)c2)C(=O)O)C(=O)O)cc1 (stereo not shown) [Methotrexate-Aminobutyl-Thyroxine, Methotrexate-aminobutylthyroxine Conjugate] | 0.566 | 0.495 | 0.433 | 0.306 | effective inhibitor | 0.579 | 0.602 | 0.664 | 0.656 | 0.667 | 0.499 | 0.645 | 0.458 |  |  |  |  |  | 
2 | CN(Cc1cnc2nc(N)nc(N)c2n1)c1ccc(C(=O)NC(CCC(=O)NC(Cc2cc(I)c(Oc3cc(I)c(O)c(I)c3)c(I)c2)C(=O)O)C(=O)O)cc1 (stereo not shown) [methotrexate-thyroxine conjugate, Methotrexate-thyroxine Conjugate] |  |  |  |  |  |  |  |  |  |  |  |  |  | 0.538 | 0.581 | 0.632 | 0.689 | 0.737 | 0.478
